# Laboratory results taken from ChEMBL document CHEMBL3632570, “Structure-Guided Design of Novel l-Cysteine Derivatives as Potent KSP Inhibitors” (ACS Med Chem Lett, 2015).
# Tested on: HCT-116
# Test: Antitumor activity against human HCT116 cells xenografted in iv dosed athymic nude BALB/cAJcL mouse assessed as inhibition of tumor growth drug administered on days 1,3,5,8,10 and 12 measured on day 15
# Type: functional, organism-based
compound,measurement,value
N[C@@H](CSC1(c2ccc(C(F)(F)F)cc2)c2ccccc2CCc2ccccc21)C(=O)O,TGI,Dose-dependent effect
